Measurements published in ChEMBL document CHEMBL2074364, “Reversal of multidrug resistance of cancer through inhibition of P-glycoprotein by 5-bromotetrandrine” (Cancer Chemother Pharmacol, 2005).

What was measured:
[1] = target: T1, ATP-dependent translocase ABCB1 (Homo sapiens, UniProt P08183); assay: TP_TRANSPORTER: increase in Doxorubicin intracellular accumulation in MCF-7/Dox cells; type: functional, cell-based
[2] = target: T1, ATP-dependent translocase ABCB1; assay: TP_TRANSPORTER: cell accumulation of doxorubicin in MCF-7/Dox cells; type: functional, cell-based

T1 sequence (P08183 whole entry): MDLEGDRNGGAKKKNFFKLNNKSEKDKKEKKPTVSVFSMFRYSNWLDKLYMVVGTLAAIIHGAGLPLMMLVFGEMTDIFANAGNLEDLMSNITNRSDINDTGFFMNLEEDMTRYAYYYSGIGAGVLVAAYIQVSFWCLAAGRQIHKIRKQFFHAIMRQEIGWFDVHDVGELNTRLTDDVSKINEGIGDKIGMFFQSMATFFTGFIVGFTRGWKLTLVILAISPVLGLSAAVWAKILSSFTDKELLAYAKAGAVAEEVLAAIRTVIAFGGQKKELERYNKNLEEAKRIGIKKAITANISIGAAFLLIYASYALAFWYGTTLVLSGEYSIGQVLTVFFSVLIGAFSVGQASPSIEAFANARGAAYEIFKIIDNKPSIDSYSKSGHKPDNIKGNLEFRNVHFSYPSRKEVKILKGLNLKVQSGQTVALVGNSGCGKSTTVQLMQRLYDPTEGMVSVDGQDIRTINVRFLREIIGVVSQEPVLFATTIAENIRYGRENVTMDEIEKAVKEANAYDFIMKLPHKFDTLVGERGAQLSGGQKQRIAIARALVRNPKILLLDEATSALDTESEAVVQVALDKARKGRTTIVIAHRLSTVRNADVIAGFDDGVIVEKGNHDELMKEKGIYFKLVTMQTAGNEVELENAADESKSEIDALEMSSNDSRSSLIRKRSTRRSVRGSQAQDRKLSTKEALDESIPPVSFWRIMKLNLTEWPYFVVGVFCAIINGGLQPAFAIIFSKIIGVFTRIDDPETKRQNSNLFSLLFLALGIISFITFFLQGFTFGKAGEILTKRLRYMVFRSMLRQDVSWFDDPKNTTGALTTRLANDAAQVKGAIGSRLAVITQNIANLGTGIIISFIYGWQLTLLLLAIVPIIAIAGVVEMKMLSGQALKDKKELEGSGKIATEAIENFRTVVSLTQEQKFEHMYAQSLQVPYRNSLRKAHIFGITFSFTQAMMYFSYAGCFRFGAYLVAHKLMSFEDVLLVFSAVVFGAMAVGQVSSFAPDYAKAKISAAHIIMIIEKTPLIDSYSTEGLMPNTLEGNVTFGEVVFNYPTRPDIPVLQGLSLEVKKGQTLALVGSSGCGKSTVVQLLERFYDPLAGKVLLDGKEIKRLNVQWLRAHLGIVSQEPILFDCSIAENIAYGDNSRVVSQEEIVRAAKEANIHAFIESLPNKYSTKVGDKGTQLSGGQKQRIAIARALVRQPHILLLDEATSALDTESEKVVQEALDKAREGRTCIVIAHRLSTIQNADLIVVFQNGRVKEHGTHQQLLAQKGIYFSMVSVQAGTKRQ

Activity [1]: inhibitor [+] | Activity [2]: inhibitor [+]
SMILES: COc1ccc2cc1Oc1ccc(cc1)C[C@@]1(C)c3cc(c(OC)cc3CCN1C)Oc1c(OC)c(OC)c(Br)c3c1[C@](C)(C2)N(C)CC3 [BROMOTETRANDRINE]
